According to PubChem BioAssay AID179 (DTP/NCI, 2004):
Active and inactive are the calls of the source.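 The calls were made as follows: active = compounds giving half or more protection of infected cells from virus-caused growth loss, again on retest; inactive = the rest.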 Where a SMILES comes first, the peptide text is derived from it. [ ]: non-standard residue; d: D form. The star is where a group is joined. ONb = O=[N+]([O-])c1ccc(CO*)cc1; pGlu = O=C1CC[CH](C(=O)O)N1; Cbz = O=C(OCc1ccccc1)*

Test system: CEM cells HIV-1 protection, formazan growth assay
Test: NCI AIDS Antiviral Assay
Conditions: for IC50: measured here: growth of uninfected CEM cells
How it was run: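 Human CEM cells, uninfected and HIV-1-infected, exposed to five drug concentrations; growth measured by soluble formazan assay and scored as percent protection from infection, with protecting compounds retested.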

Row | SMILES | EC50 [µM] | IC50 [µM] | outcome
1 | CC(C)C1CNC(=O)C2(CCCO2)CNC(C(C)C)CNC(=O)C2(CCCO2)CN1 (stereo not drawn) | > 295 | > 295 | –
2 | COc1c(NS(=O)(=O)c2ccccc2)cc2c3c(cccc13)/C(=C1\Cc3cccc4c(OC)c(NS(=O)(=O)c5ccccc5)cc1c34)C2 | > 200 | 132 | –
3 | CC1=NN(c2nc(N)nc(-c3sccc3N)n2)C(C)(C)C1 | > 200 | 77.6 | –
4 | O=C(CCC(=O)c1ccc(Cl)cc1)NO | > 200 | 123 | –
5 | COC(=O)C1CC(C(=O)OC)c2nc3cc(C)ccc3nc21 (stereo not drawn) | > 437 | > 437 | –
6 | O=[N+]([O-])c1ccc(CSc2nn(Cc3ccc([N+](=O)[O-])cc3)cc3ncnc2-3)cc1 | > 200 | 19.5 | –
7 | CC(C)CC(NC(=O)C(Cc1cnc[nH]1)NC(=O)C(Cc1ccccc1)NC(=O)C1CCCN1C(=O)OCc1ccccc1)C(=O)NC(CC(C)C)C(=O)NC(C(=O)NC(Cc1ccc(O)cc1)C(=O)NC(CO)C(=O)OCc1ccc([N+](=O)[O-])cc1)C(C)C (stereo not drawn) (Cbz-PFHLLVYS-ONb; configuration not given here) | > 11 | > 11 | –
8 | Nc1nc2c(c(=O)[nH]1)C(c1ccccc1)CC(=O)N2 (stereo not drawn) | > 200 | > 200 | –
9 | CCOC(=O)C(C)NC(=O)C(C)NC(=O)C(C)NC(=O)C(C)NC(=O)C(C)NC(=O)C(C)NC(=O)C(C)NC(=O)OCc1ccccc1 (stereo not drawn) (Cbz-AAAAAAA-OEt; configuration not given here) | > 200 | > 200 | –
10 | CC1CCN(CCC(=O)CC(c2ccccc2)c2c(O)c3ccccc3oc2=O)CC1 (stereo not drawn) | > 97.7 | 57.5 | –
11 | COc1cc(/C=C/c2nc3ccccc3nc2/C=C/c2cc(OC)c(OC)c(OC)c2)cc(OC)c1OC | > 7.41 | > 7.41 | –
12 | CC1(c2cccc3ccc(F)cc23)OC(=O)c2ccccc21 (stereo not drawn) | > 41.7 | 7.94 | –
13 | CC(=O)c1c(-c2ccc(Cl)cc2)c(C#N)c(=S)n(C2OC(CO)C(O)C(O)C2O)c1C (stereo not drawn) | > 200 | 44.7 | –
14 | O=C(/C=C/c1ccc(Br)cc1)c1ccc(NCc2nc3ccccc3[nH]2)cc1 | > 16.6 | 11.5 | –
15 | Cc1cc([N+](=O)[O-])c(S(=O)(=O)c2ccccc2)c([N+](=O)[O-])c1 | > 22.4 | 3.63 | –
16 | CC1(C)Oc2ccc(C3=NO[C@@H]4C(=O)N(c5ccc(Cc6ccc(N7C(=O)[C@H]8C(c9ccc%10c(c9)OC(C)(C)O%10)=NO[C@H]8C7=O)cc6)cc5)C(=O)[C@H]34)cc2O1 | > 91.2 | > 91.2 | –
17 | CC(=O)[O-].O=[N+]([O-])c1ccc([O-])c(C=NCCN=Cc2cc([N+](=O)[O-])ccc2[O-])c1.[Mn+3] | > 229 | 4.37 | –
18 | c1cncc(C2(c3cc4ccccc4[nH]3)COCO2)c1 (stereo not drawn) | > 200 | 126 | –
19 | COC(=O)C1=NN2c3ccccc3C(=O)OCCC2(C)C1 (stereo not drawn) | > 200 | > 200 | –
20 | CCOC(=O)c1ccc(CS(=O)(=O)c2ccc(C)cc2)c([N+](=O)[O-])c1 | > 100 | > 100 | –

Row | SMILES | EC50 [µM] | IC50 [µM] | outcome
21 | c1cc2c(c(NC3=NCCO3)c1)CCC2 | > 200 | 112 | –
22 | O=C1NC2(CCN(CCCC3(c4ccc(F)cc4)OCCO3)CC2)Oc2ccccc21 | > 100 | > 100 | –
23 | CC(NC(=O)C(Cc1cnc[nH]1)NC(=O)C1CCC(=O)N1)C(N)=O (stereo not drawn) ([pGlu]-His-Ala-NH2; configuration not given here) | > 200 | > 200 | –
24 | CCOC(=O)c1cc(Sc2ccc(N)c(C(=O)OCC)c2)ccc1N | > 200 | 15.5 | –
25 | O=C1CC2C(=O)NC(=O)C2C(=O)N1 (stereo not drawn) | > 1380 | > 1380 | –
26 | O=C(OCCN1CCCCC1)c1cc2ccccc2n1-c1ccccc1 | > 200 | 97.7 | –
27 | Cn1c2ccccc2n2c3ncccc3c(=O)c(C#N)c12 | > 50.1 | 1.26 | –
28 | Cc1cn(C2CC(NO)C(CO[Si](C)(C)C(C)(C)C)O2)c(=O)[nH]c1=O (stereo not drawn) | > 200 | 126 | –
29 | CC12CCC(C(=O)O1)C(C)(C)O2 (stereo not drawn) | > 200 | > 200 | –
30 | C=C1CCCCCCCCC/C=C/1SCCCSC | > 200 | > 200 | –
31 | COC(=O)N(C[C@@H]1C=CCCC1)c1ccccc1I | > 14.1 | > 14.1 | –
32 | O=C(c1ccc(O)c([N+](=O)[O-])c1)c1ccc(O)c([N+](=O)[O-])c1 | > 200 | 45.7 | –
33 | COc1ccccc1-c1cc(=O)c2cc(C)c(C)c(C(=O)O)c2o1 | – | – | inactive
34 | CC1CCC23COC(=O)C2C(O)CCC3C1(C)CC(O)c1ccoc1 (stereo not drawn) | > 145 | > 145 | –
35 | CCN(CC)CCOC(=O)c1cc2ccccc2[nH]1 | > 200 | > 200 | –
36 | Cc1cccc(CP(Cc2cccc(C)c2)CC2(Cp3c4ccccc4c4ccccc43)COC2)c1 | > 2 | 0.257 | –
37 | COc1cc2cc(C(=O)N3CC(CCl)c4ccc(NCCN)cc43)[nH]c2c(OC)c1OC (stereo not drawn) | > 2 | 0.813 | –
38 | Cc1ccc(/C=C2\CCCC(C(NO)c3ccc(C)cc3)C2=NO)cc1 (stereo not drawn) | > 5.75 | > 5.75 | –
39 | O=C(N/N=C\c1ccc([N+](=O)[O-])o1)c1ccncc1 | > 200 | 22.9 | –
40 | NCC1OC(OC2C(CO)OC(OC3C(O)C(N)CC(N)C3OC3OC(CN)C(O)C(O)C3N)C2O)C(N)C(O)C1O (stereo not drawn) | – | – | inactive
